Measurements reported in the NIST ThermoML archive (doi:10.1021/je700648c).
“And” between values parts separate entries of the source, which are not always exact repeats. Equal entries are not always repeated. Numbers after ± are expanded uncertainties.

Assays:
[1] = 101 kPa, Liquid
[2] = xn = mol fraction of the nth substance listed; conditions: 101 kPa, Liquid

CCn1cc[n+](C)c1.O=S(=O)([N-]S(=O)(=O)C(F)(F)C(F)(F)F)C(F)(F)C(F)(F)F
[1]
Conditions	mass density
298.15 K	1593.2 ± 4.2 kg/m3
303.15 K	1587.6 ± 4.1 kg/m3 and 1587.3 ± 4.1 kg/m3
313.15 K	1576.7 ± 4.1 kg/m3

CCn1cc[n+](C)c1.O=S(=O)([N-]S(=O)(=O)C(F)(F)C(F)(F)F)C(F)(F)C(F)(F)F + CC(C)=O
mass density [kg/m3], [2]
Conditions	298.15 K	303.15 K	313.15 K
x2 = 0	1593.2 ± 4.2	1587.3 ± 4.1	1576.7 ± 4.1
x2 = 0.0807	1576.8 ± 3.8	1571.1 ± 3.7	1560.2 ± 3.7
x2 = 0.1417	1563.1 ± 3.5	1557.4 ± 3.5	1546.4 ± 3.4
x2 = 0.2521	1534.6 ± 3	1528.8 ± 3	1517.7 ± 2.9
x2 = 0.2791	1526.6 ± 2.9	1520.8 ± 2.9	1509.6 ± 2.8
x2 = 0.415	1479.2 ± 2.4	1473.3 ± 2.4	1462.2 ± 2.3
x2 = 0.5195	1431.8 ± 2	1425.8 ± 2	1414.8 ± 2
x2 = 0.5676	1405.5 ± 1.9	1399.5 ± 1.9	1388.4 ± 1.8
x2 = 0.7092	1303.1 ± 1.5	1297.2 ± 1.5	1285.7 ± 1.4
x2 = 0.755	1258.2 ± 1.4	1252.2 ± 1.3	1240.8 ± 1.3
x2 = 0.8137	1188.4 ± 1.2	1182.5 ± 1.2	1170.8 ± 1.1
x2 = 0.8927	1062 ± 0.9	1055.9 ± 0.9	1044.3 ± 0.9
x2 = 0.9502	935 ± 0.9	929.1 ± 0.9	917.6 ± 0.9

CCn1cc[n+](C)c1.O=S(=O)([N-]S(=O)(=O)C(F)(F)C(F)(F)F)C(F)(F)C(F)(F)F + CO
mass density [kg/m3], [2]
Conditions	x2 = 0	x2 = 0.0584	x2 = 0.1116	x2 = 0.1686	x2 = 0.2956	x2 = 0.5104	x2 = 0.6083	x2 = 0.706	x2 = 0.8237	x2 = 0.9033
298.15 K	1593.2 ± 4.2	1586.2 ± 4.5	1579.4 ± 4.8	1571.3 ± 5.2	1549.7 ± 6.1	1494.6 ± 7.6	1455.3 ± 8.2	1398.9 ± 8.5	1285.9 ± 8.2	1148.2 ± 7
303.15 K	1587.6 ± 4.1	1580.5 ± 4.5	1573.7 ± 4.8	1565.6 ± 5.2	1544 ± 6	1488.9 ± 7.5	1449.6 ± 8.1	1393.2 ± 8.4	1280.2 ± 8.1	1142.6 ± 6.9
313.15 K	1576.7 ± 4.1	1569.5 ± 4.4	1562.6 ± 4.7	1554.5 ± 5.1	1532.8 ± 5.9	1477.7 ± 7.4	1438.3 ± 8	1382 ± 8.3	1269.3 ± 7.9	1132 ± 6.7

CCn1cc[n+](C)c1.COCCOCCOS(=O)(=O)[O-] [1-ethyl-3-methylimidazolium 2-(2-methoxyethoxy) ethylsulfate] + CO
[2], 298.15 K
Conditions	speed of sound [m/s]
x2 = 0.1791	1677.6 ± 3.4
x2 = 0.356	1647 ± 3.8
x2 = 0.4548	1620 ± 4
x2 = 0.5356	1597.2 ± 4.2
x2 = 0.6298	1563.6 ± 4.5
x2 = 0.7412	1499.4 ± 4.8
x2 = 0.7987	1453.2 ± 4.9
x2 = 0.8527	1387.5 ± 5
x2 = 0.9011	1324.8 ± 5.2
x2 = 0.9298	1270.8 ± 5.2
x2 = 0.962	1201.2 ± 5.3
x2 = 0.9829	1158 ± 5.4

CC(C)=O [acetone]
[1]
Conditions	mass density [kg/m3]
298.15 K	784.1 ± 1.2
303.15 K	778.4 ± 1.2
313.15 K	766.9 ± 1.2

CC(C)=O [acetone] + CCn1cc[n+](C)c1.O=S(=O)([N-]S(=O)(=O)C(F)(F)C(F)(F)F)C(F)(F)C(F)(F)F
[2], x1 = 1
Conditions	mass density [kg/m3]
298.15 K	784.1 ± 1.2
303.15 K	778.4 ± 1.2
313.15 K	766.9 ± 1.2

CO [methanol] + CCn1cc[n+](C)c1.O=S(=O)([N-]S(=O)(=O)C(F)(F)C(F)(F)F)C(F)(F)C(F)(F)F
[2], x1 = 1
Conditions	mass density [kg/m3]
298.15 K	786.6 ± 4.2
303.15 K	781.9 ± 4.2
313.15 K	772.6 ± 4.2
